What was measured:
[1] = system: Dusp18 / Gpr54 interaction; assay: Co-IP: interaction of Dusp18 with Gpr54 in RAW264.7 cells; format: cell-based, mouse
Protocol: Beads were analyzed by phosphatase activity assay (a), mass spectrometry assay (b), IB analysis (c) and quantification of protein levels (d). e, f Protein co-localization was analyzed by IF staining in primary pre-osteoclast with 10 nM Kp-10 treatment for 20 min. […] Scale bar, 50 µm. g, h binding affinity was measured by SPR binding analysis. […] Data represent means ± SEM. P values were determined by one-way ANOVA analysis (a, d, j, l) or two-tailed Student’s t-test (f). Representative results were obtained from at least three independent experiments. Source data are provided as a Source Data file.
Whole-cell proteins were extracted using 1x RIPA buffer (25 mM Tris, pH7.5, 150 mM NaCl, 0.5% Sodium deoxycholate, 1% Triton-X-100) supplemented with protease inhibitors (Complete Mini, Roche) and phosphatase inhibitors (phosphatase inhibitor cocktail set I and II, Calbiochem). Immunoprecipitation and immunoblotting with indicated antibodies were performed as described in Supplementary Table 1. Image Jsoftware (V1.52) was used for quantification analysis. Uncropped and unprocessed blots are presented in the Supplementary Information file.

[2] = system: DUSP18, Src, and GPR54 complex; assay: Co-IP: DUSP18, Src and GPR54 heterotrimer complex formation in transfected 293T cells; format: cell-based; settings: 293T with HA-Src, GPR54-Myc, DUSP18 (C104S)-Flag, Kp-10 20 min
Protocol: Anti-Flag IP derived from 293 T cells transfected with HA-Src and either DUSP18-Flag or DUSP18 (C104S)-Flag constructs with or without Kp-10 treatment for 20 min were lysed and subjected to anti-FLAG IP (b). Phosphatase reaction products using His-DUSP18 and His-DUSP18 (C104S) proteins purified from E. coli and SRC proteins purified from Sf9 insect cells (c) and quantification of protein levels (d). Anti-Src IP derived from RAW264.7 cells treated with or without Kp-10 treatment for 20 min were lysed and subjected to anti-Src IP (e) and quantification of protein levels (f). g, h Src and Dusp18 co-localization was analyzed by IF staining in primary pre-osteoclasts treated with 10 nM Kp-10 treatment for 20 min. Representative images of endogenous Dusp18 and Src were shown by TIRF microscopy (g), and MOC was used to quantify the degree of colocalization in cells from multiple images taken randomly (h). Scale bar, 50 µm. i–m IB and quantification of protein levels analysis. Anti-Flag IP derived from 293 T cells transfected with HA-Src, GPR54-myc, and either DUSP18-Flag or DUSP18 (C104S)-Flag constructs after Kp-10 treatment for 20 min (i) and quantification of protein levels (j, k). […] Scale bars, 125 µm (n), and pits depth were quantified by confocal microscopy (o). […] P values were determined by one-way ANOVA analysis (d, f, j, k, m, o) or by two-tailed Student’s t-test (h). […]

[3] = system: OVX mice; assay: OVX-induced bone loss model (and sham-operated mice); format: in vivo, mouse; settings: in vivo, OVX-induced bone loss model
Description: Fig. 7 Kp-10 ameliorated OVX-induced bone loss. a, c Representative micro-CT images of femoral trabecular bone (a) and cortical bone (c). Female C57 mice treated with vehicle (Sham) or 50 nmol/kg (DSS)*6-Kp-10, ovariectomized mice (OVX) treated with vehicle or 50nmol/kg (DSS)*6-Kp-10 twice one week by intraperitoneal injection (n = 6 per group). Scale bar, 500 µm. b, d Parameter analysis of femurs from the mice above. BMD bone mineral density, BV/TV bone volume as a fraction of total bone volume, Tb.Th trabecular thickness, Tb.N trabecular number, Tb.Sp trabecular separation. e Representative TRAP staining images of femurs from Fig. 7a. f Histomorphometry analysis of the femurs from Fig. 7a. Oc.S/BS osteoclast surface per bone surface, N.Oc/B.Pm osteoclast bone surface density, ES/BS eroded surface per bone surface. Data represent means ± SEM. P values were determined by one-way ANOVA analysis (b, d, f). Representative results were obtained from at least three independent experiments. Source data are provided as a Source Data file.
3D micro-CT analyses were performed as previously described. We scanned the femur using in vitro X-ray microtomography (Skyscan 1272, Bruker micro CT) at a pixel size of 9 µm, and analyzed the results according to the manufacturer’s instructions. Region-of-interest (ROI) was defined from 10 to 110 image slices, where the growth plate slice was defined as 0 mm. The contrast was defined from 68–255; 3D analysis, BMD, and 3D models were analyzed using CTAn software (Bruker micro CT). 3D models were adjusted in CT Vox software (Bruker micro CT).
Bone tissue was removed of excess tissues and fixed with 4% formalin, decalcified with 0.5 M EDTA for 10–14 days, embedded with paraffin, sectioned, and stained using the TRAP staining kit (Sigma-Aldrich, 387A-1KT). The third lumbar spine vertebrae (L3) were fixed with 4% formalin, sectioned, and subjected to Von Kossa staining as described previously[60],[61]. For double calcian labeling assay, 4−5 week-old mice were administrated calcian (30 μg/mL) through intraperitoneal injection for the first time and the second time after 10 days. The third lumbar spine vertebrae (L3) were fixed with 4% formalin, sectioned, and subjected to Goldner’s Masson trichrome staining, or acquisition of fluorescence images. Histomorphometric measurements were made using the OsteoMeasure Analysis System (Osteometrics, Atlanta, GA, USA) according to standard criteria.
For animal studies in vivo, mice were randomized for weight. For the OVX-induced bone loss model, 2-month-old female C57BL/6 mice were sham-operated (sham) or ovariectomized (OVX) and randomly divided into indicated groups. Vehicle, Kp-10 or (DSS)*6-Kp-10 was injected into the tail vein twice per week. After two months of treatment, the femurs and the L3 lumbrae were isolated for micro-CT or histomorphometric analysis. 3D micro-CT analyses were performed according to a standard protocol. BMD and bone volume were analyzed by CT-analysis software (CTAn, Bruker micro CT, Kontich, Belgium) and images were reconstituted by CT-volume software (CTvol, skyscan, CTAn, Bruker micro CT, Kontich, Belgium).
Supplementary Fig. 16 a Representative image of Von Kossa staining of sham-operated female C57 mice treated with vehicle (Sham, n=4), ovariectomized mice (OVX, n=3), and OVX mice treatment with 1 nmol/kg Kp-10 (n=6),10 nmol/kg Kp-10 (n=6),1 nmol/kg (DSS)*6-Kp-10 (n=5) or 10 nmol/kg (DSS)*6-Kp-10 (n=6) twice one week by intraperitoneal injection for two months. […]

With Kisspeptin-10 [Kp-10] the “recruitment of Src and Dusp18 by Gpr54, 10 nM” value ([1]; 10 nM Kp-10, Co-IP and IF) was “more significantly recruited”, the “interaction of Dusp18 with Gpr54” value ([1]; RAW264.7 cells, indicated dose of Kp-10 for 20 min) was “dose-dependently induced the interaction of Dusp18 with Gpr54” and the “heterotrimer complex formation with DUSP18 (C104S)” value [2] was “but not when the catalytic center of DUSP18 was killed”. For the same substance, the “bone loss / bone protection in vivo (summary statement)” value [3] was “abrogated bone loss by suppressing osteoclast activity in vivo”.

Reference: article PMC10861593, “Kisspeptin-10 binding to Gpr54 in osteoclasts prevents bone loss by activating Dusp18-mediated dephosphorylation of Src” (Nature Communications, 2024)
